Results on one compound are retold here after patent US20060276465A1, “1,2-di(cyclic) substituted benzene compounds” (Eisai R&D Management Co., Ltd., priority 2003, published 2006).

SMILES strings stand for the structures. pIC50: −log10 of the molar value.

The pIC50 is the negative decadic logarithm of the IC50, by convention in mol/L. Read a low pIC50 as a high IC50.

Assay [1] relates to Balb/c mice. In words: Oxazolone-induced colon neutrophil infiltration model. It is filed as in vivo. The following applies: Mus musculus, po, 4 h, colon myeloperoxidase activity vs oxazolone control group, male Balb/c mice, 30 mg/kg orally 30 minutes before intrarectal oxazolone, colons taken four hours after, read-out: Inhibitory rate (%). As to the method: Evaluation of Compounds in Oxazolone-Induced Colon Neutrophil Infiltration Model
<Sensitization with Oxazolone>
Five- to six-week-old male Balb/c mice (Charles River Japan) were shaven at the abdomen to an approximately 2 cm square area. A 100% ethanol solution containing 3% 4-ethoxymethylene-2-phenyl-2-oxazolin-5-one (hereinafter referred to as “oxazolone”; Sigma) was applied at 150 μl onto the abdomen of each mouse.
<Preparation of Emulsion Containing Oxazolone>
Distilled water (Otsuka Pharmaceutical) was added in an equivalent volume to 100% peanut oil (Kanto Kagaku) containing 1% oxazolone, and the components were vigorously mixed with a glass syringe (Top Co.), to prepare an emulsion containing 0.5% oxazolone.
<Induction with Oxazolone> […]
Each compound was suspended or dissolved in an aqueous solution containing 0.5% methyl cellulose (Wako), and orally administered at 30 mg/kg 30 minutes prior to the intrarectal injection of oxazolone emulsion. […] Specifically, to 10 μl of the obtained supernatant was added 200 μl of 50 mM KPB (pH6.0) containing 0.017% o-dianisidine (Sigma) and 0.0005% hydrogen peroxide (Wako), incubated at 37° C., and the change in absorbance at 450 nm was continuously measured for 1 minute using an EL340 Automated Microplate Reader (BIO-TEK) in kinetic mode. The units were the rate of change in absorbance per minute (mO.D./min.). […]

The next assay concerns Jurkat cells. The assay is described as follows: Jurkat cell adhesion system (adhesion to immobilized human fibronectin, PMA-stimulated). It is filed as cell-based. Particulars: concentration inhibiting by 50% the PMA-stimulated increase in the number of adhered Jurkat cells on human fibronectin; 45-60 minutes, 37° C. The protocol: Evaluation of Compounds in Jurkat Cell Adhesion System
<Immobilization of Human Fibronectin in 96-Well Plate>
Human fibronectin (Becton Dickinson Biosciences) was diluted with phosphate-buffered saline (hereinafter abbreviated as PBS; Sigma) to 0.1-0.01 μg/ml, and the diluted solution was added to a 96-well plate (Becton Dickinson) at 50 μl/well, and allowed to stand overnight at 4° C. On the following day, the supernatant was removed from the plate, and then PBS containing 1% bovine serum albumin (hereinafter abbreviated as BSA; Sigma) was added thereto at 100 μl/well and incubation was performed at 37° C. for 2 hours in a CO2 incubator (Hirasawa).
The supernatant was removed from each plate and Jurkat cells suspended in RPMI-1640 (Sigma) containing 1 mg/ml BSA were added at 80 μl/well for 2.5×10^5 cells/well. The compound diluted to different concentrations with RPMI-1640 containing 1 mg/ml BSA was immediately added at 10 μl/well, and then 100 nM phorbol myristate acetate (hereinafter abbreviated as PMA; Sigma) in RPMI-1640 containing 1 mg/ml BSA was added at 10 μl/well and the plate was incubated in a CO2 incubator at 37° C. for 45-60 minutes. The supernatant was removed from the plate and each well was washed several times with 100 μl/well of RPMI-1640, after which 50 mM citrate buffer (pH 5.0) containing 3.75 mM p-nitrophenol-N-acetyl-β-D-glucosaminide (Sigma) and 0.25% Triton X-100 (Sigma) were added at 60 μl/well, and the mixture was placed in a CO2 incubator and incubated at 37° C. for 45 minutes. After incubation, 50 mM glycine buffer (pH 10.4) containing 5 mM EDTA was added at 90 μl/well, and the absorbance at 405 nm was measured with an EL340 Automated Microplate Reader (BIO-TEK) to determine the adhered cell count. The concentration of each compound which inhibited the increase in the number of adhered cells by the PMA-stimulation by 50% was recorded as the IC50 (μM).

Assay [2] concerns Balb/c mice. In words: DSS-induced colitis model. It is filed as in vivo. Particulars: male Balb/c mice; 1-3% DSS for 5-7 days; 30 mg/kg orally once a day for 5-7 successive days. The text has this: Evaluation of Compounds in DSS-Induced Colitis Model
A 1-3% solution of dextran sulfate sodium (hereinafter abbreviated as DSS; ICN) in purified water (Otsuka Pharmaceutical) was fed freely to 6- to 7-week-old male Balb/c mice (Charles River Japan) for 5-7 days to induce colitis. Disease Activity Index (hereinafter abbreviated as DAI) scored based on fecal hardness, blood content in feces and body weight change, the number of neutrophils infiltrating the colon and the length of the colon were used as indexes to evaluate compounds. Each compound was suspended or dissolved in an aqueous solution containing 0.5% methyl cellulose (Wako), and orally administered at 30 mg/kg once a day, for 5-7 successive days.

As to `COCCN1CCN(c2ccccc2C2CCC(C(C)(C)C)CC2)CC1.Cl` (stereo not drawn) [Example 19, 1-[2-(4-t-Butylcyclohexyl)phenyl]-4-(2-methoxyethyl)piperazine hydrochloride], the inhibition in vivo at 30 mg/kg with Balb/c mice [1] came to 53%. In addition, the pIC50 in the assay with Jurkat cells is 5.21. The “improvement in comparison with the DSS control group (DAI, number of neutrophils infiltrating the colon, length of the colon)” value with Balb/c mice [2] was “particularly good improvement”.
